Patent US6685617B1, “Inhibitors of α4β1 mediated cell adhesion” (Pharmacia & Upjohn Company, priority 1998, dated 2004)

Biological target: T1, α4β1 integrin (Jurkat cell adhesion to immobilized CS-1 derived peptide CLHPGEILDVPST) (Homo sapiens, UniProt P05556+P13612)
T1 construct: 100 μl of Jurkat cells (2.5×10^6 cells/ml) in DMEM plus BSA; host or cells: Jurkat T-cell line
Assay: Jurkat-CS-1 assay
Type: cell-based
Conditions: Jurkat cells on CS-1 peptide coated plates; read-out: JK/CS-1 (Jurkat CS-1 Assay IC50 value range)
Experimental: The CS-1 derived peptide, CLHPGEILDVPST, and the scrambled control peptide, CLHGPIELVSDPT, were synthesized on a Beckman 990 synthesizer using t-Boc methodology. The peptides were immobilized onto microtiter plates using the heterobifunctional crosslinker 3-(2-pyridyldithio)propionic acid N-hydroxysuccinimide ester (SPDP) as reported by Pierschbacher et al., Proc. Natl. Acad. USA, 80:1224-1227 (1983). Microtiter plates were coated with 20 μg/ml HSA for 2 hr. at room temperature, washed once with PBS and derivatized with 10 μg/ml SPDP for 1 hr. After washing, 100 μl of a 100 μg/ml cysteine containing peptide solution which had been recently dissolved was added to the wells and allowed to crosslink to the plates overnight at 4° C. Unbound peptide was removed from plates by washing with PBS. To block non-reacted sites, the plates are coated with 100 μl of a 2.5 mg/ml BSA solution in PBS for 1 hr. at 37° C. 100 μl of Jurkat cells (2.5×10^6 cells/ml) in DMEM plus BSA (2.5 mg/ml) was mixed with an appropriate concentration of the compound to be tested and the mixture was added to peptide coated dishes and incubated for 1 hr. at 37° C. Generally 100, 20, 5 and 1.25 μM concentrations of the compound were tested.
Following this incubation the plates were washed once with PBS and the attached cells were fixed with 3% paraformaldehyde in PBS and stained with 0.5% toluidine blue in 3.7% formaldehyde. The cells were stained overnight at room temperature and the optical density at 590 nm of toluidine blue stained cells was determined using a vertical pathway spectrophotometer to quantitate attachment (VMAX Kinetic Microplate Reader, Molecular Devices, Menlo Park, Calif.). This procedure is a modification of a previously published method (Cardarelli et al, J. Biol. Chem., 269:18668-18673 (1994) and Cardarelli et al, Proc. Natl. Acad. Sci. USA, 83:2647-2651 (1986)).

T1 sequence (P13612 34-1032): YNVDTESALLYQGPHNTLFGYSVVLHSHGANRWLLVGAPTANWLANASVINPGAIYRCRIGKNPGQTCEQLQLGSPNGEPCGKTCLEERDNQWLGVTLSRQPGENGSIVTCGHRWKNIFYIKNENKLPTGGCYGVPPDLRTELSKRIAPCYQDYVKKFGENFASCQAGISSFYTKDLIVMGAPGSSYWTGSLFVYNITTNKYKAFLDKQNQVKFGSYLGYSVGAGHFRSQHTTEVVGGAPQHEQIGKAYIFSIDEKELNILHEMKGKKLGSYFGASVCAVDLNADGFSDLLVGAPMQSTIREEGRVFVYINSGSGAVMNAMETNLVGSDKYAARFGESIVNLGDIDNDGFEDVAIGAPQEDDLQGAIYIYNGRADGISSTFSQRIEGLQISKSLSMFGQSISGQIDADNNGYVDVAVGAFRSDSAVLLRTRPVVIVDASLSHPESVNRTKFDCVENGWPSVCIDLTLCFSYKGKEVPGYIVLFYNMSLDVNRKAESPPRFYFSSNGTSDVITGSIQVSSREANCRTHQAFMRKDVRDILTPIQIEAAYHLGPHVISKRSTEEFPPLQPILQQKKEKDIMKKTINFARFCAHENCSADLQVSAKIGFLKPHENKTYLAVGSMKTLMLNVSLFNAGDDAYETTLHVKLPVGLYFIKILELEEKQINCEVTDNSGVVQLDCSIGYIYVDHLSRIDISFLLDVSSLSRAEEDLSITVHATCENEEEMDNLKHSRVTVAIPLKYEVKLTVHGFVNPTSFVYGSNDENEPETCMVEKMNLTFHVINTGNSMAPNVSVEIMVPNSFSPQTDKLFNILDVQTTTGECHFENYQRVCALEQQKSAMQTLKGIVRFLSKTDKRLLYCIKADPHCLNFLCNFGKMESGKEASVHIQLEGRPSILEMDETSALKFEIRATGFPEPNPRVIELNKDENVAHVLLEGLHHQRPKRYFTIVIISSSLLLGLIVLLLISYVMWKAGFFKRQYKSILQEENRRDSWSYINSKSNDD
T1 sequence (P05556 21-798): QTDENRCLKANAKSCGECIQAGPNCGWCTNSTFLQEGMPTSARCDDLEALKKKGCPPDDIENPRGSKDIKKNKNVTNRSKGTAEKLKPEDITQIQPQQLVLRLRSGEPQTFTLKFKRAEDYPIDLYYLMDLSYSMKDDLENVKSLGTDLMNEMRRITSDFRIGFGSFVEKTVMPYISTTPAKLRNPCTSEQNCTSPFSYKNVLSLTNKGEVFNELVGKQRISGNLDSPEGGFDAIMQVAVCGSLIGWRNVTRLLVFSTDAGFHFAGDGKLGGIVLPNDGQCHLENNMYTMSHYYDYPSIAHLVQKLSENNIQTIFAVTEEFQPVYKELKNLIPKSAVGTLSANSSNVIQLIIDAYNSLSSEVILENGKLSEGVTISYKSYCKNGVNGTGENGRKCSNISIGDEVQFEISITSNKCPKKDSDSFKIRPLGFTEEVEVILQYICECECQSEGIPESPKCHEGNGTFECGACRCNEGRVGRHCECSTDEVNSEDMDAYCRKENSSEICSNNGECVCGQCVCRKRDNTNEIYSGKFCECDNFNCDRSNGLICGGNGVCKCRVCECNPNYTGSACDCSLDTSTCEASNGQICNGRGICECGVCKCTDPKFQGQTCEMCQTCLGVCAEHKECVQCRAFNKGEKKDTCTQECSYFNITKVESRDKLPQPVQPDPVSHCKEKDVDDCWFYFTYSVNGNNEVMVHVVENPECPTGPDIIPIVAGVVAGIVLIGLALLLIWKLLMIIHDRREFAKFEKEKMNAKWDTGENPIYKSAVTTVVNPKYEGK

Structure (SMILES) | IC50
CCOC(=O)N1CSC[C@@H]1C(=O)N[C@@H](Cc1ccc(NS(=O)(=O)c2cc(Cl)ccc2Cl)cc1)C(=O)O [Example 276, (4S)-4-[[[(1S)-1-Carboxy-2-[4-[[(2,5-dichlorophenyl)sulfonyl]amino]phenyl]ethyl]amino]carbonyl]-3-thiazolidinecarboxylic Acid 3-Ethyl Ester] | ≥ 750 nM
CCOC(=O)N1CSC[C@@H]1C(=O)N[C@@H](Cc1ccc(NC(C)=O)cc1)C(=O)O [Example 269, (4S)-4-[[[(1S)-1-Carboxy-2-[4-[(acetyl)amino]phenyl]ethyl]amino]carbonyl]-3-thiazolidinecarboxylic Acid 3-Ethyl Ester] | ≥ 750 nM
CCOC(=O)N1CSC[C@@H]1C(=O)N[C@@H](Cc1ccc(NC(=O)c2c(Cl)cc(Cl)cc2Cl)cc1)C(=O)O [Example 275, (4S)-4-[[[(1S)-1-Carboxy-2-[4-[(2,4,6-trichlorobenzoyl)amino]phenyl]ethyl]amino]-carbonyl]-3-thiazolidinecarboxylic Acid 3-Ethyl Ester] | ≤ 50 nM
CCOC(=O)N1CSC[C@@H]1C(=O)N[C@@H](Cc1ccc(NC(=O)c2ccc(C)cc2)cc1)C(=O)O [Example 273, (4S)-4-[[[(1S)-1-Carboxy-2-[4-[(4-methylbenzoyl)amino]phenyl]ethyl]amino]carbonyl]-3-thiazolidinecarboxylic Acid 3-Ethyl Ester] | ≥ 750 nM
CCOC(=O)N1CSC[C@@H]1C(=O)N[C@@H](Cc1ccc(NC(=O)CCc2ccccc2)cc1)C(=O)O [Example 270, (4S)-4-[[[(1S)-1-Carboxy-2-[4-[(3-phenylpropanoyl)amino]phenyl]ethyl]amino]carbonyl]-3-thiazolidinecarboxylic Acid 3-Ethyl ester] | 50 to 750 nM
CCOC(=O)N1CSC[C@@H]1C(=O)N[C@@H](Cc1ccc(NC(=O)Nc2c(Cl)cccc2Cl)cc1)C(=O)O [Example 277, (4S)-4-[[[(1S)-1-Carboxy-2-[4-[[[(2,6-dichlorophenyl)amino]carbonyl]amino]phenyl]ethyl]amino]carbonyl]-3-thiazolidinecarboxylic Acid 3-Ethyl Ester] | ≥ 750 nM
CCOC(=O)N1CSC[C@@H]1C(=O)N[C@@H](Cc1ccc(NC(=O)c2ccccc2C(F)(F)F)cc1)C(=O)O [Example 274, (4S)-4-[[[(1S)-1-Carboxy-2-[4-[[2-(trifluoromethyl)benzoyl]amino]phenyl]ethyl]amino]carbonyl]-3-thiazolidinecarboxylic Acid 3-Ethyl Ester] | 50 to 750 nM
CCOC(=O)N1CSC[C@@H]1C(=O)N[C@@H](Cc1ccc(NC(=O)c2ccc(OC)cc2)cc1)C(=O)O [Example 272, (4S)-4-[[[(1S)-1-Carboxy-2-[4-[(4-methoxybenzoyl)amino]phenyl]ethyl]amino]carbonyl]-3-thiazolidinecarboxylic Acid 3-Ethyl Ester] | 50 to 750 nM
O=C(Nc1ccc(C[C@H](NC(=O)C2CS[C@@H]3CNC(=O)N23)C(=O)O)cc1)c1c(Cl)cccc1Cl (stereo partly drawn) [Example 280, 4-[(2,6-Dichlorobenzoyl)amino]-N-[[(7aR)-hexahydro-5-oxoimidazo[5,1-b]thiazol-3-yl]carbonyl]-L-phenylalanine] | 50 to 750 nM
O=C(Nc1ccc(C[C@H](NC(=O)C2CS[C@H]3CNC(=O)N23)C(=O)O)cc1)c1c(Cl)cccc1Cl (stereo partly drawn) [Example 279, 4-[(2,6-Dichlorobenzoyl)amino]-N-[[(7aS)-hexahydro-5-oxoimidazo[5,1-b]thiazol-3-yl]carbonyl]-L-phenylalanine] | 50 to 750 nM
CCOC(=O)N1CSC[C@@H]1C(=O)N[C@@H](Cc1ccc(NC(=O)c2cccnc2)cc1)C(=O)O [Example 271, (4S)-4-[[[(1S)-1-Carboxy-2-[4-[(3-pyridinylcarbonyl)amino]phenyl]ethyl]amino]carbonyl]-3-thiazolidinecarboxylic Acid 3-Ethyl Ester] | 50 to 750 nM
CCOC(=O)N1CSC[C@@H]1C(=O)N[C@@H](Cc1ccc(NC(=O)c2ccccc2)cc1)C(=O)O [Example 268, (4S)-4-[[[(1S)-1-Carboxy-2-[4-[(benzoyl)amino]phenyl]ethyl]amino]carbonyl]-3-thiazolidinecarboxylic Acid 3-Ethyl Ester] | ≥ 750 nM
O=C(Nc1ccc(C[C@H](NC(=O)C2CSC3COC(=O)N32)C(=O)O)cc1)c1c(Cl)cccc1Cl (single isomer, unassigned) [Example 281, 4-[(2,6-Dichlorobenzoyl)amino]-N-[(tetrahydro-5-oxo-5H-thiazolo[3,2-c]oxazol-3-yl)carbonyl]-L-phenylalanine] | 50 to 750 nM
CCOC(=O)N1CSC[C@@H]1C(=O)N[C@@H](Cc1ccc(C(=O)Nc2c(Cl)cc(Cl)cc2Cl)cc1)C(=O)O [Example 278, (4S)-4-[[[(1S)-1-Carboxy-2-[4-[[(2,4,6-trichlorophenyl)amino]carbonyl]phenyl]ethyl]amino]carbonyl]-3-thiazolidinecarboxylic Acid 3-Ethyl Ester] | 50 to 750 nM

Other lines, results leading:

IC50 | Structure (SMILES)
50 to 750 nM | NC(=O)[C@H](Cc1ccc(OCc2c(Cl)cccc2Cl)cc1)NC(=O)[C@H]1CSCN1C(=O)OCCN1CCCCC1 [Example 286, (4S)-4-[[[(1S)-2-Amino-1-[[4-[(2,6-dichlorophenyl)methoxy]phenyl]methyl]-2-oxoethyl]amino]carbonyl]-3-thiazolidinecarboxylic Acid 3-[2-(1-Piperidinyl)ethyl]ester]
50 to 750 nM | CCOC(=O)N1C(c2ccncc2)SC[C@@H]1C(=O)N[C@@H](Cc1ccc(NC(=O)c2c(Cl)cccc2Cl)cc1)C(=O)O (stereo partly drawn) [Example 283, (4S)-4-[[[(1S)-1-Carboxy-2-[4-[(2,6-dichlorobenzoyl)amino]phenyl]ethyl]amino]carbonyl]-2-(4-pyridinyl)-3-thiazolidinecarboxylic Acid 3-Ethyl Ester]
50 to 750 nM | CN1CCN(CCOC(=O)N2CSC[C@@H]2C(=O)N[C@@H](Cc2ccc(OCc3c(Cl)cccc3Cl)cc2)C(N)=O)CC1 [Example 287, (4S)-4-[[[(1S)-2-Amino-1-[[4-[(2,6-dichlorophenyl)methoxy]phenyl]methyl]-2-oxoethyl]amino]carbonyl]-3-thiazolidinecarboxylic Acid 3-[2-(4-Methyl-1-piperazinyl)ethyl]ester]
≤ 50 nM | CCOC(=O)N1CSCC1C(=O)N[C@@H](Cc1ccc(NC(=O)c2c(Cl)cccc2Cl)nc1)C(=O)O (stereo in doubt) [Example 290, [S-(R*,R*)]-4-[[[1-Carboxy-2-[2-[(2,6-dichlorobenzoyl)amino]-5-pyridinyl]ethyl]amino]carbonyl]-3-thiazolidinecarboxylic Acid Ethyl Ester]
≤ 50 nM | O=C(Nc1ccc(C[C@H](NC(=O)C2CSC3COC(=O)N32)C(=O)O)cc1)c1c(Cl)cccc1Cl (single isomer, unassigned) [Example 282, 4-[(2,6-Dichlorobenzoyl)amino]-N-[(tetrahydro-5-oxo-5H-thiazolo[3,2-c]oxazol-3-yl)carbonyl]-L-phenylalanine]
50 to 750 nM | NC(=O)[C@H](Cc1ccc(OCc2c(Cl)cccc2Cl)cc1)NC(=O)[C@H]1CSCN1C(=O)OCCN1CCCC1 [Example 284]
50 to 750 nM | O=C(O)[C@H](Cc1ccc(OCc2c(Cl)cccc2Cl)cc1)NC(=O)[C@H]1CSCN1C(=O)OC1CCOC1 (stereo partly drawn) [Example 285, (4S)-4-[[[(1S)-1-Carboxy-2-[4-[(2,6-dichlorophenyl)methoxy]phenyl]ethyl]amino]carbonyl]-3-thiazolidinecarboxylic Acid 3-(3-Tetrahydrofuranyl)ester]
≥ 750 nM | NC(=O)[C@H](Cc1ccc(NC(=O)c2c(Cl)cccc2Cl)cc1)NC(=O)[C@H]1CSCN1C(=O)OCCN1CCOCC1 [Example 288, (4S)-4-[[[(1S)-2-Amino-1-[[4-[(2,6-dichlorobenzoyl)amino]phenyl]methyl]-2-oxoethyl]amino]carbonyl]-3-thiazolidinecarboxylic Acid 3-[2-(4-Morpholinyl)ethyl]ester]
